Peptide text beside a SMILES is read from it.
Key:
MCF-7 cells [1] = assay: BrdU incorporation (DNA synthesis), estradiol-stimulated MCF-7 cells; type: cell-based, human; conditions: 24 hrs
Method: (§1) DNA synthesis is assayed in single cells by a 6 h pulse with 100 μM (final concentration) BrdU (Boeheringer). Cells on coverslips are fixed, and incubated with diluted (1:1 in PBS) fluorescein-conjugated mouse anti-BrdU mAbs (clone BMC9318 from Boheringer Mannheim Co., IN), then washed three times with PBS. […] All coverslips are washed three times in PBS, inverted and mounted in Moviol (Calbiochem, CA) on glass slides. Slides are analyzed using an Axiophot fluorescent microscope (Zeiss).

AR association with Src = target: T1, AR association with Src (Homo sapiens, UniProt P12931); assay: Androgen-stimulated AR association with Src, anti-Src co-immunoprecipitation in LNCaP cells; type: cell-based
T1 construct: Cell lysates are submitted to immuno-precipitation using mouse monoclonal anti-Src antibodies; endogenous in cells; host or cells: LNCaP
Method: Human prostate cancer LNCaP cells were left unstimulated or stimulated for 2 min with 10 nM R1881 alone or in the presence of 1000-fold excess of Casodex or 1 nM of the SH3-binder peptide or the shuffled sequence of peptide SEQ.ID NO.1 (SEQ.ID NO.7). Cell lysates were incubated with anti-Src antibodies, and the immunoprecipitated proteins resolved on SDS-PAGE and transferred onto nitrocellulose filters. Filters were then blotted with either anti-Src or anti-human AR antibodies to detect AR associated with Src. […] Lane 1: unstimulated cells; lane 2: R1881 treated cells; lane 3: cells treated with R1881 in the presence of Casodex (Cdx); lane 4: cells treated with R1881 in the presence of the SH3 binder peptide (SH3, SEQ.ID NO.1); lane 5: cells treated with R1881 in the presence of the shuffled sequence of peptide SEQ.ID NO.1 (Ss, SEQ.ID NO.7).
Cells are then stimulated with 10 nM R1881 alone or in the presence of a 1000-fold excess of the anti-androgen Casodex or 1 nM of the SEQ.ID NO.1 peptide or 1 nM of the shuffled sequence of peptide SEQ.ID NO.1 (SEQ.ID NO.7) for 2 min, and lysed. Cell lysates are submitted to immuno-precipitation using mouse monoclonal anti-Src antibodies (Clone 327, Oncogene Science, Manhasset, N.Y.). The immuno-precipitated proteins are resolved on a 12% SDS-polyacrylammide gel and thereafter transferred onto nitrocellulose filters. […]

LNCaP cells [2] = assay: BrdU incorporation (DNA synthesis), R1881-stimulated LNCaP cells; type: cell-based, human; conditions: for residual BrdU incorporation: R1881 alone 54%, untreated 20%
androgen receptor = assay: ARE luciferase reporter gene transcription in LNCaP cells; type: cell-based, human
Method: LNCaP cells were transfected with a reporter gene encoding the luciferase gene under the control of an androgen responsive element (ARE 3416) (Castoria et al., 2003). Six hrs after transfection, cells were kept for further 24 hrs in the absence or in presence of 10 nM R1881 alone or with a 1000 fold excess of Casodex or with 1 nM SH3 binder peptide (SEQ.ID NO.1) or 1 nM shuffled sequence of peptide SEQ.ID NO.1 (SEQ.ID. NO.7). Luciferase activity was then assayed in cell lysates. Bar1: unstimulated cells; Bar 2: R1881 treated cells; Bar 3: cells treated with R1881 in the presence of Casodex (Cdx); Bar 4: cells treated with R1881 in the presence of the SH3 binder peptide (SH3); Bar 5: cells treated with R1881 in the presence of the shuffled sequence of peptide SEQ.ID NO.1 (Ss).
LNCaP cells, kept in 5% CO2 in air in RPMI 1640 medium (GIBCO) supplemented with phenol-red, 2 mM L-glutamine (GIBCO), penicillin (100 U/ml), gentamicin (50 μl/ml), insulin and 10% fetal calf serum, are transfected with a reporter gene engineered in a pSG5 expression vector with the luciferase gene under the control of an androgen responsive element (ARE3416) (Verrijdt et al., 2000). […]

LNCaP cells [3] = assay: BrdU incorporation (DNA synthesis), EGF-stimulated LNCaP cells; type: cell-based, human; conditions: 24 hrs
Method: FIG. 1C. DNA synthesis inhibition of EGF-stimulated human prostate cancer cells by SH3 binder peptide modeled from AR (SEQ. ID NO.1). LNCaP cells were grown in phenol red-free medium added with charcoal-treated serum as previously described and treated for 24 hrs with 100 ng/ml EGF alone or in the presence of a 10 μM of the anti-estrogen ICI 182,780 or 1 nM of the AR-derived (SH3-binder) peptide (SEQ.ID NO.1) or the shuffled sequence of peptide SEQ.ID NO.1 (SEQ.ID NO.7). At the end of the growth factor treatment BrdU incorporation in the cells untreated (control) or treated with EGF alone (EGF) or in the presence of ICI 182,780 (ICI) or the SH3-binder (SH3) or the shuffled sequence of peptide SEQ.ID NO.1 (Ss) was assayed. Data are reported as percentage of cells incorporating BrdU.
(§2) The peptide SEQ.ID NO.1 is finally assayed for its ability to reduce or inhibit EGF induced DNA synthesis in human prostate cancer LNCaP (1C) and MCF-7 (1D) cells. The LNCaP and MCF-7 cells are cultured as described above, then seeded onto coverslips. Cells are then stimulated with 100 ng/ml of highly purified EGF (Boheringer, Calif.) in the absence or in presence of 1 nM peptide SEQ.ID NO.1.
as §1

MCF-7 cells [4] = assay: BrdU incorporation (DNA synthesis), EGF-stimulated MCF-7 cells; type: cell-based, human; conditions: 24 hrs
Method: FIG. 1D. […] MCF-7 cells were grown in phenol red-free medium added with charcoal-treated serum as previously described and treated for 24 hrs with 100 ng/ml EGF alone or in the presence of a 10 μM of the anti-estrogen ICI 182,780 or 1 nM of the AR-derived (SH3-binder) peptide or the shuffled sequence of peptide SEQ ID NO.1 (SEQ.ID. NO.7). At the end of the growth factor treatment, BrdU incorporation in the cells untreated (control) or treated with EGF alone (EGF) or in the presence of ICI 182,780 (ICI) or SH3-binder (SH3) or shuffled sequence of peptide SEQ.ID NO.1 (Ss) was assayed. Data are reported as percentage of cells incorporating BrdU.
as §2, §1

ER association with Src = target: T2, ER association with Src (Homo sapiens, UniProt P12931); assay: Estrogen-stimulated ER/AR association with Src, anti-Src co-immunoprecipitation in MCF-7 cells; type: cell-based
T2 construct: Cell lysates are submitted to immunoprecipitation using mouse monoclonal anti-Src antibodies; endogenous in cells; host or cells: MCF-7
Method: Human breast cancer MCF-7 cells were left unstimulated or stimulated for 2 min with 10 nM 17β estradiol alone or in the presence of a 1000 fold excess of ICI 182,780 or 1 nM of the SH3 binder peptide or the shuffled sequence of peptide SEQ.ID NO.1 (SEQ.ID NO.7). Cell lysates were incubated with anti-Src antibodies, immunoprecipitated proteins were resolved on SDS-PAGE and transferred onto nitrocellulose filters. Filters were then blotted with either anti-Src or anti-human AR antibodies to detect AR associated with Src.
Cells are suspended in 1 ml of lysis buffer: 50 mM Tris-HCl, pH 7.40, containing 5 mM MgCl2, 150 mM NaCl, 0.5% Triton X-100 and left under gentle shaking for 2 min, at 4° C. Suspensions are then centrifuged at about 800 g for 30 min and supernatant collected and used for immunoprecipitation.
To address this point mammary cancer derived MCF-7 cells are grown in 5% CO2 in air in DMEM medium (GIBCO) supplemented with phenol-red, 2 mM L-glutamine (GIBCO), penicillin (100 U/ml), gentamicin (50 μl/ml), hydrocortisone (3.75 ng/ml) insulin (0.2 U.I./ml) and 5% fetal calf serum. The cells are then kept in DMEM without phenol red and supplemented with glutamine, penicillin, gentamicin and insulin as above and containing 5% charcoal-stripped fetal calf serum for additional 4 days. […]

Cyclin D1 [5] = assay: Androgen-induced cyclin D1 expression, western blot in MCF-7 and LNCaP cells; type: cell-based, human
Method: Inhibition of androgen-induced cyclin D1 expression by AR-derived Src-SH3 binder peptide (SEQ.ID NO.1). Quiescent MCF-7 and LNCaP cells were left untreated or treated for 8 hrs with 10 nM R1881 alone or in the presence of 5 μM PI3-kinase inhibitor LY294,002 or 1 nM AR-derived SH3 binder or the shuffled sequence of peptide SEQ.ID NO.1 (SEQ.ID. NO.7). Protein from cell lysates were resolved on SDS-PAGE, then transferred to nitrocellulose filters. […] Lanes 1: unstimulated cells; lanes 2: R1881 treated cells; lanes 3: cells treated with R1881 in the presence of LY294,002 (LY); lanes 4: cells treated with R1881 in the presence of AR-derived (SH3-binder) peptide (SH3); lane 5: cells treated with R1881 in the presence of the shuffled sequence of peptide SEQ.ID NO.1 (Ss).
To verify this possibility, SH3 binder peptide (SEQ.ID NO.1) is added to MCF-7 and LNCaP cells stimulated with the androgen. MCF-7 and LNCaP cells are routinely grown as described above. Cells are then kept for at least 4 days in red phenol-free medium supplemented as described above and added with dextran-coated charcoal treated fetal calf serum to minimize steroid concentration.

Cyclin D1 [6] = assay: Estrogen-induced cyclin D1 expression, western blot in MCF-7 and LNCaP cells; type: cell-based, human
Method: Quiescent MCF-7 and LNCaP cells were left untreated or treated for 8 hrs with 10 nM 17β estradiol alone or in the presence of 5 μM PI3-Kinase inhibitor LY294,002 or 1 nM of the SH3 binder or the shuffled sequence of peptide SEQ.ID NO.1 (SEQ.ID NO.7). Protein from cell lysates were resolved on SDS-PAGE, then transferred to nitrocellulose filters. […] Lanes 1: unstimulated cells; lanes 2: estradiol treated cells; lanes 3: cells treated with estradiol in the presence of LY294,002 (LY); lane 4: cells treated with estradiol in the presence of SH3-binder peptide (SH3); lane 5: cells treated with estradiol in the presence of the shuffled sequence of peptide SEQ.ID NO.1 (Ss).
To test the effect of SH3 binder peptide (SEQ.ID NO.1) on estrogen stimulated Cyclin D1 expression, this peptide is added to LNCaP and MCF-7 cells stimulated with 10 nM 17β-estradiol (FIG. 3B). MCF-7 and LNCaP cells are routinely grown as reported above. Cells are then kept for at least 4 days in red phenol-free medium supplemented as described above and added with dextran-coated charcoal treated fetal calf serum to minimize steroid contamination.

MCF-7 cell xenografts = MCF-7 cell xenografts in nude male mice; conditions: peptide intraperitoneally on alternate days, MCF-7 xenograft mice; data not shown
LNCaP cell xenografts = LNCaP cell xenografts in nude male mice; conditions: peptide intraperitoneally on alternate days, LNCaP xenograft mice; data not shown
[7] = 1 nM peptide with 10 nM R1881, 24 hrs
[8] = 1 nM peptide with 10 nM 17β estradiol

Work on `C[C@]12CC[C@@H]3c4ccc(O)cc4CC[C@H]3[C@@H]1CC[C@@H]2O` [17β estradiol] yielded a BrdU incorporation rate (MCF-7 cells [1]; 10 nM 17β estradiol alone, untreated cells 8%, averaged from six assays) of 61%.
In the case of `CC(O)(CS(=O)(=O)c1ccc(F)cc1)C(=O)Nc1ccc(C#N)c(C(F)(F)F)c1` (stereo not shown) [Casodex, biclutamide], the “hormone stimulated Src-AR association (AR co-immunoprecipitated by anti-Src antibodies)” value (AR association with Src; 1000-fold excess with 10 nM R1881, 2 min) is reported as “abolished”, the “residual BrdU incorporation” value (LNCaP cells [2]; 1000-fold excess with 10 nM R1881, 24 hrs) is reported as 21% and the “androgen induced transcription of reporter gene” value (androgen receptor; 1000 fold excess with 10 nM R1881, 24 hrs) is reported as “completely inhibits”.
For `C[C@]12CC[C@@H]3c4ccc(O)cc4C[C@@H](CCCCCCCCC[S+]([O-])CCCC(F)(F)C(F)(F)F)[C@H]3[C@@H]1CC[C@@H]2O` (stereo partly shown) [ICI 182,780], the “residual BrdU incorporation” value (MCF-7 cells [1]; 1000-fold excess with 10 nM 17β estradiol, E2 alone 61%, untreated 8%) was 7%, the “residual BrdU incorporation” value (LNCaP cells [3]; 10 μM with 100 ng/ml EGF, EGF alone 21%, untreated 8%) was 7% and the “residual BrdU incorporation” value (MCF-7 cells [4]; 10 μM with 100 ng/ml EGF, EGF alone 36%, untreated 6%) was 9%. For the same compound, the “association between ER and Src (co-immunoprecipitation by anti-Src antibodies)” value (ER association with Src; 1000-fold excess with 10 nM 17β estradiol) was “abolished”.
In the case of `O=c1cc(N2CCOCC2)oc2c(-c3ccccc3)cccc12` [LY 294,002], the “hormone stimulated cyclin expression” value (Cyclin D1 [5]; 5 μM with 10 nM R1881, MCF-7 and LNCaP) is reported as “abolishes” and the “hormone stimulated cyclin expression” value (Cyclin D1 [6]; 5 μM with 10 nM 17β estradiol) is reported as “abolishes”.
For `CC(C)(C)n1nc(-c2ccc(Cl)cc2)c2c(N)ncnc21` [PP2], the “hormone stimulated cyclin expression” value (Cyclin D1 [5]; with 10 nM R1881, concentration not given, data not shown) was “abolishes”.
Work on `C[C@]1(O)CC[C@H]2[C@@H]3CCC4=CC(=O)CCC4=C3C=C[C@@]21C` [R1881] yielded a BrdU incorporation rate (LNCaP cells [2]; 10 nM R1881 alone, 24 hrs, untreated cells 20%, averaged from six assays) of 54%.
With `CC[C@H](C)[C@H](NC(=O)[C@H](CCCNC(=N)N)NC(=O)[C@H](C)NC(=O)[C@H](Cc1c[nH]cn1)NC(=O)[C@@H]1CCCN1C(=O)[C@H](Cc1c[nH]cn1)NC(=O)[C@@H]1CCCN1C(=O)[C@@H]1CCCN1C(=O)[C@@H]1CCCN1C(C)=O)C(=O)N[C@@H](CCCCN)C(N)=O` [SEQ.ID NO.1, Ac-Pro-Pro-Pro-His-Pro-His-Ala-Arg-Ile-Lys-NH2] (Ac-PPPHPHARIK-NH2) the “weight of mice vs vehicle” value (MCF-7 cell xenografts) was “No difference” and the “weight of mice vs vehicle” value (LNCaP cell xenografts) was “No difference”.
With “Ac-His-Pro-Lys-Pro-Ala-Arg-Ile-Pro-His-Pro-NH2 (Ac-HPKPARIPHP-NH2) [SEQ.ID NO.7]” the “hormone stimulated Src-AR association (AR co-immunoprecipitated by anti-Src antibodies)” value (AR association with Src; 1 nM peptide with 10 nM R1881, 2 min) was “only slightly affected”, the “Cyclin D induction by R1881” value (Cyclin D1 [5]; 1 nM peptide with 10 nM R1881, 6 hrs, MCF-7 and LNCaP) was “only partially reduces” and the “residual BrdU incorporation” value (LNCaP cells [2]; [7]) was 48%. The “effect on estrogen-induced DNA synthesis” value (MCF-7 cells [1]; [8]) was “not significant effect”, the “transcriptional activity of AR (luciferase reporter)” value (androgen receptor; [7]) was “neither the SH3 peptide nor the shuffled sequence of peptide SEQ. ID NO.1 affect” and the “BrdU incorporation (residual)” value (LNCaP cells [3]; 1 nM peptide with 100 ng/ml EGF, EGF alone 21%, untreated 8%) was 15%. The “BrdU incorporation (residual)” value (MCF-7 cells [4]; 1 nM peptide with 100 ng/ml EGF, EGF alone 36%, untreated 6%) was 48%, the “hormone stimulated receptor-Src association (co-immunoprecipitation by anti-Src antibodies)” value (ER association with Src; [8]) was “only slightly affected” and the “Cyclin D induction by estrogen” value (Cyclin D1 [6]; 1 nM peptide with 10 nM 17β estradiol, 6 hrs) was “a little effect”.
With “EGF: highly purified EGF, growth factor used as stimulus” the BrdU incorporation (LNCaP cells [3]; 100 ng/ml EGF alone, untreated cells 8%) was 21% and the BrdU incorporation (MCF-7 cells [4]; 100 ng/ml EGF alone, untreated cells 6%) was 36%.

— patent publication US9919023B2, “Anti-androgen peptides and uses thereof in cancer therapy” (Cancer Research Technology Limited, priority 2007, dated 2018)
